Reference: PMC12291762 (Antioxidants, 2025)

What was measured:
[1] = test system: systemic oxidative stress parameters; assay: Systemic redox state (plasma, erythrocyte lysate) 24 h after carrageenan; assay type: in vivo, Wistar albino rats
Procedure: (§1) Following 24 h of carrageenan-induced paw edema inflammation model and intraperitoneal anesthesia induced by ketamine/xylazine (100/10 mg/kg of BW), the animals were sacrificed, while whole-blood samples and edema-affected paw tissues were isolated. After centrifugation of whole blood, plasma and erythrocyte lysate samples were separated for further examination of the applied compounds’ effects on the systemic redox balance state. Pro-oxidative markers including superoxide anion radical (O2∙^−), hydrogen peroxide (H2O2) nitrites (NO2^−), and index of lipid peroxidation measured as thiobarbituric acid (TBA) reactive substances (TBARS) were determined from plasma samples, while the antioxidant capacity, including superoxide dismutase (SOD) and catalase (CAT) activity, as well as the reduced glutathione (GSH) level were examined in erythrocyte lysate samples [46]. […] Edema-affected paw tissue samples were weighed (100 mg) and homogenized (OmniPrep™ multi-sample homogenizer, Omni International, Kennesaw, GA, USA) in 900 µL phosphate buffer on ice (pH = 7.4), and centrifuged at 12,000 rpm for 20 min. These supernatant samples were used for the determination of the aforementioned pro-oxidative and antioxidative parameters levels. All oxidative stress analyses were performed spectrophotometrically using a Shimadzu UV 1800 spectrophotometer (Kyoto, Japan).
(§2) Determination of the O2∙^− level was conducted by adding 950 µL of a Nitro Blue Tetrazolium (NBT) mixture with TRIS buffer in 50 µL of sample, measured at the 550 nm wavelength. The level of H2O2 was determined during the oxidation of phenol red by H2O2, which was catalyzed with horseradish peroxidase and measured at the 610 nm wavelength. Indirect measurement of nitrites was performed by the precipitation of samples with 30% sulfo-salicylic acid, followed by vortexing and centrifugation at 3000 rpm for 15 min. The equal volumes of isolated supernatant and Griess’ reagent (containing 1% sulfanilamide in 5% phosphoric acid/0.1% naphthalene ethylenediamine-dihydrochloride) were incubated for 10 min and measured at the 550 nm wavelength. The TBARS concentration was determined by adding 400 µL of sample to 200 µL of TBA in 0.05 M NaOH, followed by 15 min incubation at 100 °C. Measurement was performed at the 530 nm wavelength.
(§3) The epinephrine method was used for SOD determination. By adding 100 µL of sample, the same volume of epinephrine, and 1000 µL of carbonate buffer, the measurement was performed at the 470 nm wavelength. The determination of CAT activity was based on the preparation of a mixture containing 100 µL of sample, 50 µL of catalase buffer, and 1000 µL of 10 mM H2O2, which was measured at the 230 nm wavelength.

[2] = test system: local oxidative stress parameters; assay: Local redox state (edema-affected paw tissue homogenate) 24 h after carrageenan; assay type: in vivo, Wistar albino rats; settings: inflamed paw tissue
Procedure: as §1, §2, §3

COX-1 = biological target: T1, COX-1 (Ovis aries, UniProt P05979); assay: Fluorometric COX-1 inhibitor screening kit; assay type: biochemical; design: purchased Abcam ab204698; settings: mean ± standard error, three independent measurements
T1 sequence (P05979 25-600): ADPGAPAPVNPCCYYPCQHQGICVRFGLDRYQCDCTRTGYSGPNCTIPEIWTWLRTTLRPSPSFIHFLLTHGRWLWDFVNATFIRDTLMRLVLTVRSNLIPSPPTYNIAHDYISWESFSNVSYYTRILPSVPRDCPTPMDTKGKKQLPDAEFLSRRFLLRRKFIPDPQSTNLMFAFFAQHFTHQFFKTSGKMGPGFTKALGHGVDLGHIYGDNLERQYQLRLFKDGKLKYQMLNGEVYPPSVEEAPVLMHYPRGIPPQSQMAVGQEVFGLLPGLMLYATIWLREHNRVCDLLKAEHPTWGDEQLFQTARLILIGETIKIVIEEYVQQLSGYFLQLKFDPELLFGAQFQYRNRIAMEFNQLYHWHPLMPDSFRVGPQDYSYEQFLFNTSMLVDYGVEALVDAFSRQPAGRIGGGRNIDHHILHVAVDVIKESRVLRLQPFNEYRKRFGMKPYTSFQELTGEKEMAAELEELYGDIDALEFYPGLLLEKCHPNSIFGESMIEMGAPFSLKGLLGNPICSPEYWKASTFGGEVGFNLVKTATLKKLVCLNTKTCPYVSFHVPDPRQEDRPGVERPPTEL
Procedure: The inhibitory activity of the tested compounds against COX-1 and COX-2 isoforms was assessed using fluorometric cyclooxygenase inhibitor screening kits (Catalog Numbers ab204698 and ab283401, respectively; Abcam, Cambridge, UK). These assays detect the formation of prostaglandin G2, a product of COX enzymatic activity, via fluorometric measurement.
Stock solutions of the test compounds were prepared at a concentration of 5 mM in DMSO and subsequently diluted with the same solvent to obtain the test solutions. For the assay preparation, 2 μL of each test solution was diluted with 8 μL of COX assay buffer. The solvent control (SC) consisted of 2 μL of DMSO and 8 μL of assay buffer, while the enzyme control (EC) contained 10 μL of assay buffer alone. Sample wells (S) received 10 μL of the diluted test solutions. All other steps were in accordance with the manufacturer’s protocol and the previously published article. […] The percentage of inhibition was calculated as follows:(3) % Relative Inhibition=Slope of EC−Slope of S/Slope of EC×100
Fluorescence measurements were conducted on a BioTek Synergy LX multi-mode reader (Winooski, VT, USA).

COX-1 and COX-2 = settings: cited from earlier work

With `C[C@H](C(=O)O)c1cccc(C(=O)c2ccccc2)c1` [Dexketoprofen, reference compound] the “Systemic CAT activity compared to Sol (untreated) rats” value ([1]; erythrocyte lysate) was “significantly reduced activity of SOD and CAT, as well as the GSH level, in untreated rats compared to Dex”, the “Systemic GSH level compared to untreated rats” value ([1]; erythrocyte lysate) was “significantly reduced activity of SOD and CAT, as well as the GSH level, in untreated rats compared to Dex” and the “Systemic SOD activity compared to Sol (untreated) rats” value ([1]; erythrocyte lysate) was “significantly reduced activity of SOD and CAT, as well as the GSH level, in untreated rats compared to Dex”. The “Systemic H2O2 level compared to solvent rats” value ([1]; plasma) was “significantly lower”, the “Systemic O2∙− level compared to untreated (Sol) rats” value ([1]; plasma) was “significantly lower” and the “Systemic TBARS level compared to Sol (untreated) rats” value ([1]; plasma) was “significantly decreased”. The “Local O2∙− concentration compared to untreated rats” value [2] was “significantly decreased”, the “Local SOD activity compared to untreated (negative control) rats” value [2] was “remarkably improved” and the “Local nitrites level (reduction, p < 0.05)” value ([2]; comparator not given) was “markedly reduced”. It also gave an IC50 (COX-1) of 1.5 ± 0.6 nM.

For `C[C@@H](C(=O)O)c1cccc(C(=O)c2ccccc2)c1` [(R)-ketoprofen], the “Times lower COX inhibitory capacity than dexketoprofen” value (COX-1 and COX-2) is listed as 100 to 1000 times.
